Patent US20190121935A1, “PHENOTYPIC PERSONALIZED MEDICINE: ADAPTIVE OPTIMIZATION OF PATIENT-SPECIFIC COMBINATION THERAPY” (THE REGENTS OF THE UNIVERSITY OF CALIFORNIA, priority 2015, published 2019)

Experiments:
[1] = Retrospective clinical analysis using FSC of liver transplant patient data (tacrolimus serum trough levels, Patients A and B); assay type: in vivo, human; details: standard of care (clinically observed), target 8-10 ng/ml
Protocol: Retrospective clinical analysis was performed under IRB#14-001682 approved by the UCLA Institutional Review Board. Discharged liver transplantation patient data, such as serum level and drug regimen dosages, were obtained for analyses for the retrospective study. […] In this process, the inclusion of all the drugs as covariates allowed better representation of each patient's data and examination of the effects of drug-drug interactions within each patient's constructed map. Minimum values based on the difference between the individual patient's serum level reading and a target serum level during various small time windows were collected, and these were entered into the globally fitted map of each patient in order to find the optimum dose for that specific patient.

[2] = human, in vivo
Protocol: This prospective trial was conducted under IRB#14-001682, IRB#14-001682-AM-00001, and IRB#14-001682-AM-00002 approved by the UCLA Institutional Review Board. Following liver transplant, patients were started on a regimen of tacrolimus, mycophenolate, and methylprednisolone. According to protocol, methylprednisolone dosing was tapered using a 1000-150-[…]-120-80-40-20 mg regimen. Methylprednisolone was subsequently changed to prednisone given at 20 mg which was commonly followed with a tapering protocol. Mycophenolate dosing was administered according to protocols determined by the clinical team. Serum trough levels were taken between 4:00-6:00 AM daily, and a first dose of tacrolimus was administered between 5:00 AM-6:00 AM daily, following the serum trough recording. The clinical team obtained the daily treatment regimen details including drugs already administered, drugs to be administered, hemodialysis to be performed, co-infections, and planned prophylaxis and sent an updated clinical chart for each patient to the FSC team.
Serum levels, drug regimen dosages, and other events such as hemodialysis were obtained every morning prior to analyses. In order to project optimum dosages, a 2nd order polynomial fit for each patient was made from linear regression with mainly two variables, such as trough concentration and tacrolimus dosing amount, and it was used with at least three prior data points for the specific patient.
Statistical analyses were performed by analyzing the accuracy of correlating 2nd order polynomial mapping to the patients' data since patient-specific treatment was conducted in this study. This was accomplished using the coefficient of determination, or R-squared analysis. Values were used to correlate clinical and regression data. Where relevant, statistical significances of all the generated maps for the data analyses were determined using a t-test at α=0.05 level of confidence.

Structure (SMILES) | day from which trough levels deviated permanently from the target range [1] | share of treatment with trough levels outside of the target range [2] | trough reading higher than the anticipated trough level [2] | trough reading lower than the anticipated trough level [2] | Serum Result (change of tacrolimus serum trough level on co-administration change) [2]
C=CC[C@@H]1/C=C(\C)C[C@H](C)C[C@H](OC)[C@H]2O[C@@](O)(C(=O)C(=O)N3CCCC[C@H]3C(=O)O[C@H](/C(C)=C/[C@@H]3CC[C@@H](O)[C@H](OC)C3)[C@H](C)[C@@H](O)CC1=O)[C@H](C)C[C@@H]2OC [tacrolimus] | ≥ 15 days | 91% | 0.5 ng/mL | 2.0 ng/mL | –
CC(=O)NC[C@H]1CN(c2ccc(N3CCOCC3)c(F)c2)C(=O)O1 [Linezolid] | – | – | – | – | +0.7
